The values that follow come from patent US7582677B2, “Lignan formulations” (Hormos Medical Corp., priority 2002, dated 2009).

For this test, the system named is microsomal lipids. The experiment in a line: Inhibition of lipid peroxidation (microsomal lipids, tert-butylhydroperoxide initiated, chemiluminescence detection). The class given is biochemical. The following applies: peroxidation of microsomal lipids initiated by tert-butylhydroperoxide. From the text: In this model, lignan compounds were compared to the well known, potent antioxidant Trolox, which is a water-soluble derivative of vitamin E.
By IC50 is commonly meant the concentration that gives 50% inhibition. A low value points to higher potency. `COc1cc(CC2C(=O)OCC2C(=O)c2ccc(O)c(OC)c2)ccc1O` (centres unmarked) [Oxomatairesinol] yielded an IC50 of 110 nM. Turning to α-Conidendrin, the IC50 came out at 67 nM. As for `COc1cc(CC2COC(=O)C2(O)Cc2ccc(O)c(OC)c2)ccc1O` (centres unmarked) [Nortrachelogenin], the figure is 150 nM; as for `CCCC(=O)Oc1ccc(C[C@H]2COC(=O)[C@@H]2Cc2ccc(OC(=O)CCC)c(OC)c2)cc1OC` [Matairesinoibutyrate], 350 nM; as for `Cc1c(C)c2c(c(C)c1O)CCC(C)(C(=O)O)O2` (centres unmarked) [Trolox, reference compound], 220 nM.

For HMR-butyrate, inhibition was half-maximal at 100 nM (IC50). The result for `COc1cc(C[C@H]2C(=O)OC[C@@H]2[C@H](O)c2ccc(O)c(OC)c2)ccc1O` [Hydroxymatairesinol (HMR), Hydroxymatairesinol] reads 60 nM. As for `COc1cc(C[C@H]2CO[C@H](c3ccc(O)c(OC)c3)[C@H]2CO)ccc1O` [Lariciresinol], the figure is 70 nM. For HMR-benzoate, the IC50 is 120 nM. The result for `COc1cc(C[C@H]2COC(=O)[C@@H]2Cc2ccc(O)c(OC)c2)ccc1O` [Matairesinol] reads 54 nM. The compound `COc1cc(C[C@@H](CO)[C@H](CO)Cc2ccc(O)c(OC)c2)ccc1O` [Secoisolariciresinol] displayed an IC50 of 90 nM.
